In US20080261902A1, “Pharmaceutical composition containing polydatin and its application” (Shenzhen Neptunus Pharmaceutical Co., Ltd., priority 2005, published 2008):
Values after ≈ are worked out from the molar mass of the structure shown.

Tests used:
[1] = Solubility of polydatin in propanediol-water solution (Embodiment 14); assay type: physicochemical; conditions: for solubility at 8 h: thermodynamic from solid, room temperature
Description: Materials: 1,2-propanediol, analytically pure, Guangzhou No. 2 chemical reagent factory; purified water, […] industry city. Method: Preparing propanediol water solutions having concentration of at least 20%(v/v) with propanediol and purified water. Precisely measuring propanediol and 20 ml propanediol water solution of each above concentration, adding polydatin of proper amount respectively, treating with ultrasonic for 20 min under 40° C., supersaturating the solution, placing for 8 h under room temperature, filtering with 0.45 μm microporous membrane, wherein the filtrates are saturated solutions of polydatin in propanediol water solutions of different concentration. Adopting HPLC method to determine content of polydatin in the filtrates and calculate solubility of polydatin referring to document 20.

[2] = Effect of pH to solubility of polydatin (Embodiment 12); assay type: physicochemical; conditions: for solubility at 8 h: deionized water of adjusted pH, thermodynamic from solid, water, room temperature
Description: • 1. Materials: Deionized water, […] industry city; sodium hydroxide, Dongguan dongjiang chemical reagent co., ltd.; hydrochloric acid, Dongguan dongjiang chemical reagent co., ltd. • 2. Method: Regulating deionized water into pH of 5.0˜12.0 with 0.2N sodium hydroxide and 0.2N hydrochloric acid. Measuring precisely 20 ml each of above solutions, adding polydatin of proper amount respectively, treating with ultrasonic for 20 min under 40° C., supersaturating the solution, placing for 8 h under room temperature, filtering with 0.45 μm microporous membrane, wherein the filtrates are saturated solutions of polydatin in water solutions of different pHs. Adopting HPLC method to determine content of polydatin in the filtrates and calculate solubility of polydatin referring to document 20 (Wuye etc., determination content of resveratrol glycoside and tangerine peel glycoside in qing dan capsule with HPLC method, Chinese traditional patent medicine, 1999, 21(5): 226). • 3.

In the case of `OCC1OC(Oc2cc(O)cc(/C=C/c3ccc(O)cc3)c2)C(O)C(O)C1O` [polydatin, 3,4′,5-trihydroxy-trans stilbene-3-β-D-glucoside], the solubility at 8 h ([1]; 1,2-propanediol, organic solvent or mixture, content of propanediol 100% (propanediol)) is reported as roughly 60000 µg/mL (≈ 154 mM), the “stability of the solution” value ([1]; 20% propanediol water solution, about 3.5 mg/ml) is reported as “precipitates solute of polydatin after placing for 12 h” and the solubility at 8 h ([1]; propanediol-water solution, aqueous with cosolvent or surfactant or cyclodextrin, content of propanediol 20% (v/v) in water) is reported as roughly 3500 µg/mL (≈ 8.97 mM). For the same compound, the solubility at 8 h ([1]; propanediol-water solution, aqueous with cosolvent or surfactant or cyclodextrin, content of propanediol 35% (v/v) in water) was 4900 µg/mL (≈ 12.6 mM), the solubility at 8 h ([1]; propanediol-water solution, aqueous with cosolvent or surfactant or cyclodextrin, content of propanediol 50% (v/v) in water) was 24400 µg/mL (≈ 62.5 mM) and the solubility at 8 h ([1]; propanediol-water solution, aqueous with cosolvent or surfactant or cyclodextrin, content of propanediol 65% (v/v) in water) was 28300 µg/mL (≈ 72.5 mM). The solubility at 8 h ([1]; propanediol-water solution, aqueous with cosolvent or surfactant or cyclodextrin, content of propanediol 80% (v/v) in water) was 33600 µg/mL (≈ 86.1 mM), the “pH of the solution needed to obtain polydatin water solution” value ([2]; concentration above 3 mg/ml) was “above 12” and the solubility at 8 h ([2]; pH 5, aqueous buffer, pH of solvent 5.0) was less than 500 µg/mL. For the same compound, the solubility at 8 h ([2]; pH 6, aqueous buffer, pH of solvent 6.0) was less than 500 µg/mL, the solubility at 8 h ([2]; pH 7, aqueous buffer, pH of solvent 7.0) was less than 500 µg/mL and the solubility at 8 h ([2]; pH 8, aqueous buffer, pH of solvent 8.0) was less than 500 µg/mL. It also gave a solubility at 8 h ([2]; pH 9, aqueous buffer, pH of solvent 9.0) of less than 500 µg/mL, a solubility at 8 h ([2]; pH 10, aqueous buffer, pH of solvent 10.0) of less than 500 µg/mL and a solubility at 8 h ([2]; pH 11, aqueous buffer, pH of solvent 11.0) of 700 µg/mL (≈ 1.79 mM). For the same compound, the solubility at 8 h ([2]; pH 12, aqueous buffer, pH of solvent 12.0) was roughly 5000 µg/mL (≈ 12.8 mM), the “pH of final solution” value ([2]; pH of solvent 12) was “about 10” and the “pH of the final solution” value ([2]; polydatin water solution of concentration above 3 mg/ml) was “above 10”.
